Results on four compounds are retold here after patent publication US20070015231A1, “Assay for protein tyrosine phosphatases” (CEPTYR, Inc., priority 2000, published 2007).

In assay [1] the target is T1, PTP1B(D181A) (Homo sapiens, UniProt P18031, D181A).
T1 construct: PTP1B proteins (wild type and mutant forms) comprising amino acids 1-321 were expressed in E. coli; made in house; host or cells: E. coli
T1 sequence (P18031 1-321 D181A): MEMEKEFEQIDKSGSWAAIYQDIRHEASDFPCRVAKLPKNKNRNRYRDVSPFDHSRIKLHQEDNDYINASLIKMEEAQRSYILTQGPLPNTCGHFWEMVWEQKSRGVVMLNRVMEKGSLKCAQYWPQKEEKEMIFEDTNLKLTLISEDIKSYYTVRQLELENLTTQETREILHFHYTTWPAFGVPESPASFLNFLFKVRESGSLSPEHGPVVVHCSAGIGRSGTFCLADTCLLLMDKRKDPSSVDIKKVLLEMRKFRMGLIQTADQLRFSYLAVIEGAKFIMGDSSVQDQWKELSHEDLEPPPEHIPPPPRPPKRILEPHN
Kind of assay: PTP-1B (DA) binding assay: fluorescence polarization binding of fluorescein-labeled phosphotyrosyl peptides. As to conditions: Table 2; midpoint of bound/unbound transition (apparent Kd). The method, then:
(§1) Two assay parameters were measured: (1) the dynamic range of the signal (i.e. the difference between polarization values of the bound and the unbound fluorescent substrate) and (2) the midpoint of the transition between bound and unbound that represents the apparent Kd (i.e. affinity) of each binding mutant for each peptide.
(§2) Assays were set up at room temperature in black polypropylene 96 well microtiter plates (Polyfiltronics, Whatman, U. K.) by the sequential addition of 40 μl of Assay Buffer, 40 μl of diluted binding protein and 40 μl of 0.3 nM fluorescein-labeled substrate peptide. After 15 min plates were read in a Criterion Analyst™ (LJL BioSystems, Inc., Sunnyvale, Calif.) in fluorescence polarization detection mode using the parameters listed as follows:
(§3) To obtain values for background fluorescence, assays were set up as above except the fluorescein-labeled substrate was replaced with Assay Buffer. To determine the fluorescence polarization values for the unbound substrate peptide, assays were set up as above except that the 40 μl of diluted binding protein was replaced with Assay Buffer.
Background: Polarisation of emitted light reports the rotation of a fluorescent probe.

Assay [2] concerns the target T2, PTP1B(C215S) (Homo sapiens, UniProt P18031, C215S).
T2 construct: PTP1B proteins (wild type and mutant forms) comprising amino acids 1-321 were expressed in E. coli; made in house; host or cells: E. coli
T2 sequence (P18031 1-321 C215S): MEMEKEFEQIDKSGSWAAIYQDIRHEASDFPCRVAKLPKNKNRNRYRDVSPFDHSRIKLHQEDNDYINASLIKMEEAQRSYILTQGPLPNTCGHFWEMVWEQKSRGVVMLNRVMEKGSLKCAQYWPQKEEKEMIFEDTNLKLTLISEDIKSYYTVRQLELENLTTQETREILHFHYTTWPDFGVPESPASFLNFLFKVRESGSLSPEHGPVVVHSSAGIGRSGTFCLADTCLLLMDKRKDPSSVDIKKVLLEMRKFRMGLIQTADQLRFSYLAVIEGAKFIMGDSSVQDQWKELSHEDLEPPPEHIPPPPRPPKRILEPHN
Kind of assay: PTP-1B (CS) binding assay: fluorescence polarization binding of fluorescein-labeled phosphotyrosyl peptides. Conditions: Table 1; midpoint of bound/unbound transition (apparent Kd). The method, then:
as §1, §2, §3

Assay [3] has as its target LAR (Homo sapiens, UniProt P10586). Conditions: insulin receptor 1142-1152 peptide, pTyr1146; cited from earlier work.
For assay [4], the target named is T3, D181A PTP1B (Homo sapiens, UniProt P18031, D181A).
T3 construct: PTP1B proteins (wild type and mutant forms) comprising amino acids 1-321 were expressed in E. coli; made in house; host or cells: E. coli
T3 sequence (P18031 1-321 D181A): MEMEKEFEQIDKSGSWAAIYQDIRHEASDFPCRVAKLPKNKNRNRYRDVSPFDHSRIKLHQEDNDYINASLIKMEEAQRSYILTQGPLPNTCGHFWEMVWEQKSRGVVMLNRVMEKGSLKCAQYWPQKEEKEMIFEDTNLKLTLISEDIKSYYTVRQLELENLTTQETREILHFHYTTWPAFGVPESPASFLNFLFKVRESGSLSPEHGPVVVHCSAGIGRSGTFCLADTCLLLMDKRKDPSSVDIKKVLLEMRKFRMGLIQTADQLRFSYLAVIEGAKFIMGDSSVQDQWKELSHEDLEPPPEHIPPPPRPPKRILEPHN
The experiment in a line: Inhibition of fluorescent EGF receptor peptide binding to DA substrate binding mutant (FP). The protocol:
(§4) To the test agents was added 40 μl of 3 nM CS or DA binding mutant of PTP1B in Assay Buffer. Plates were shaken for 30 sec to mix the two solutions. After another 12.5 minutes 40 μl of 3 nM fluorescein-labeled EGF receptor peptide was added and the solutions mixed for 30 sec. After 12.5 minutes of incubation the plates were read as described in Example 3.

The target in assay [5] is T4, C215S PTP1B (Homo sapiens, UniProt P18031, C215S).
T4 construct: PTP1B proteins (wild type and mutant forms) comprising amino acids 1-321 were expressed in E. coli; made in house; host or cells: E. coli
T4 sequence (P18031 1-321 C215S): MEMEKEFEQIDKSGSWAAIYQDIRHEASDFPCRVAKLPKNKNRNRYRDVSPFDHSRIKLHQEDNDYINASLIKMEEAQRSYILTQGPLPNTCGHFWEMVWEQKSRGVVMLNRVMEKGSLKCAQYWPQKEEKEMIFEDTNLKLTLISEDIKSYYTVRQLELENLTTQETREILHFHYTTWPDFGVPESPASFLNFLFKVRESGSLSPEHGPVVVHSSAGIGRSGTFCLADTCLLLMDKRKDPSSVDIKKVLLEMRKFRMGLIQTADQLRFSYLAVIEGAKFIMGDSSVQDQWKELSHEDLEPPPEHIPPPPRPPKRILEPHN
Kind of assay: Inhibition of fluorescent EGF receptor peptide binding to CS substrate binding mutant (FP). Conditions: Table 3; fluorescein-labeled EGF receptor peptide. The protocol: as §4

The target of assay [6] is T5, PTP1B (Homo sapiens, UniProt P18031).
T5 construct: PTP1B proteins (wild type and mutant forms) comprising amino acids 1-321 were expressed in E. coli; made in house; host or cells: E. coli
T5 sequence (P18031 1-321): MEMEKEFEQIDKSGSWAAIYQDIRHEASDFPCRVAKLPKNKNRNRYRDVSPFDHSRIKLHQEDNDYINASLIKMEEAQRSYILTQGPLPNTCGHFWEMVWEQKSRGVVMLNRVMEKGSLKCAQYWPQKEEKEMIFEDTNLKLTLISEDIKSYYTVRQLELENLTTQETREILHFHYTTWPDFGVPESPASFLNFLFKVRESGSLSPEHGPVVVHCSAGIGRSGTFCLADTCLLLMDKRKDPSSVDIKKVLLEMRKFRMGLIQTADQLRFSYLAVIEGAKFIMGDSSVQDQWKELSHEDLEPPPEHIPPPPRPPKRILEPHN
Kind of assay: PTP catalytic assay of F-ERP-P dephosphorylation with alternate reaction terminator molecules (FP). The class given is biochemical. As to conditions: 2 mM in terminator solution with C215S PTP1B or G104. The method, then:
The ability of each reaction terminator molecule also was assessed in the presence and absence of vanadate (a well known, nonspecific PTP inhibitor).
Assays were set up in black polypropylene plates with 20 μl of 25 mM Tris HCl pH 7.5 and 20 μl of 300 nM F-ERP-P in 25 mM Tris HCl pH 7.5, 1 mM EDTA, 1 mM DTT, 0.25 mg/ml ovalbumin (TEOD buffer). […] Plates were read using the Polarstar instrument from BMG Lab Technologies using the following settings:
As in Example 3, wells were set up to measure background fluorescence to allow proper calculation of mP values and other wells were set up without addition of terminator reagent to assess the minimum polarization value of the unbound fluorescent phosphotyrosyl peptide (F-ERP-P).

Where [7] appears, read: Table 3, fluorescein-labeled EGF receptor peptide, read-out: D181A IC50.

Like-named read-outs stand apart in the source and are kept apart here.

As usually defined, the EC50 is the midpoint of the concentration-response curve. A word on the Km: it is the concentration of substrate that gives half-maximal velocity. The IC50 is the concentration at which inhibition is half-maximal.

LAR, sequence (P10586 30-1907, species assumed): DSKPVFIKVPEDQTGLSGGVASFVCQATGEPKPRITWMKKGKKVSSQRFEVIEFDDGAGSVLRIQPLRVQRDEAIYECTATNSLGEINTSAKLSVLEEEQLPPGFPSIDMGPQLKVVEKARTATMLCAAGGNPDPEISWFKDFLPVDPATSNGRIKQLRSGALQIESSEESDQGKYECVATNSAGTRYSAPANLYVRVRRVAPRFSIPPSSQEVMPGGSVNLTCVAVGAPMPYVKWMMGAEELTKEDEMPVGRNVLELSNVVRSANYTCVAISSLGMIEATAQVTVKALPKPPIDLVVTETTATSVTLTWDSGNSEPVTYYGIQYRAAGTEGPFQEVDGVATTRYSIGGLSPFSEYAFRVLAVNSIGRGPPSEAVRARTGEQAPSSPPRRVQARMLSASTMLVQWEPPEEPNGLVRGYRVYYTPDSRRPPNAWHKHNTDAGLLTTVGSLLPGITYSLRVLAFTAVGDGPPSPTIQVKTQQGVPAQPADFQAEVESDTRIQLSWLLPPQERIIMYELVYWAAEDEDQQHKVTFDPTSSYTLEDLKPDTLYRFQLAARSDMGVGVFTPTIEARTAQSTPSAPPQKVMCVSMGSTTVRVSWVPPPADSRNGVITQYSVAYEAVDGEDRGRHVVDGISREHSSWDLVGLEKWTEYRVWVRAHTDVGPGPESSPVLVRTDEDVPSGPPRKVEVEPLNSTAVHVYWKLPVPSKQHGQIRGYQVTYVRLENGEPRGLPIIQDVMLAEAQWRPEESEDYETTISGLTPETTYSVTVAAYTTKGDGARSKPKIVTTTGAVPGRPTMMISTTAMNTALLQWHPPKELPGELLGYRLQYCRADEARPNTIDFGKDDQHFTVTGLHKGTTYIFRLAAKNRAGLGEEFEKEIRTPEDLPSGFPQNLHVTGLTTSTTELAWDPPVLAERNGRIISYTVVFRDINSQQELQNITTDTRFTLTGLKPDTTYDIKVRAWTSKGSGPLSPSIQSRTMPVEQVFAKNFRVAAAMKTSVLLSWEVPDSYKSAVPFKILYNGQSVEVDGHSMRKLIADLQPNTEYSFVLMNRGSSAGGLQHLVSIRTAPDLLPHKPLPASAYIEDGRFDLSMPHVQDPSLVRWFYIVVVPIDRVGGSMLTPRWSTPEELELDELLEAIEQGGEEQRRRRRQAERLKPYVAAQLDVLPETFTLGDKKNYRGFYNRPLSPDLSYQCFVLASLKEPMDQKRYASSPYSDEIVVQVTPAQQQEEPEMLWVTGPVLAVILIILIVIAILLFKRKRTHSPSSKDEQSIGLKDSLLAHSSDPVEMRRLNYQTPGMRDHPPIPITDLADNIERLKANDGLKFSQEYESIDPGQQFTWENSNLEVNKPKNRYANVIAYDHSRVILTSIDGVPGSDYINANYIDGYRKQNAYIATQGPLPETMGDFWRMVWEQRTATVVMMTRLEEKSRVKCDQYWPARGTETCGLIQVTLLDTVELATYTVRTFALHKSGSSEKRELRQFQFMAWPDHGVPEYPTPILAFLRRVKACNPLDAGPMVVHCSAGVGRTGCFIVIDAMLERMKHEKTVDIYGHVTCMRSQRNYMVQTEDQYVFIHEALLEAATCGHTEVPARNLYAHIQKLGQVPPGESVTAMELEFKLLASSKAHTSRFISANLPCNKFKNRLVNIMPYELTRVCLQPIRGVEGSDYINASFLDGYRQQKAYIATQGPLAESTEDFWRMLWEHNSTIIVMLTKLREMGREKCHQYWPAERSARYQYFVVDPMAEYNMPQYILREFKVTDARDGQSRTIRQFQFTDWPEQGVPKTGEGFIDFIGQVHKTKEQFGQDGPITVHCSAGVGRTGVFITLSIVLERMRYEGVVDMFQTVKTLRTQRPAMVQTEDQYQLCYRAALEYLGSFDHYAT

Turning to `CC[C@H](C)[C@H](NC(=O)[C@H](CC(=O)O)NC(=O)[C@H](CCCNC(=N)N)NC(=O)[C@@H](NC(=O)c1ccc2c(c1)C(=O)OC21c2ccc(O)cc2Oc2cc(O)ccc21)[C@@H](C)O)C(=O)N[C@@H](Cc1ccc(OP(=O)(O)O)cc1)C(=O)N[C@@H](CCC(=O)O)C(=O)N[C@H](C(=O)N[C@@H](CC(=O)O)C(=O)N[C@@H](Cc1ccc(O)cc1)C(=O)N[C@@H](Cc1ccc(O)cc1)C(=O)N[C@@H](CCCNC(=N)N)C(=O)O)[C@@H](C)O` [F-IR-P, T-R-D-1-pY-E-T-D-Y-Y-R], the EC50 in assay [1] amounted to 0.000508 µM; in assay [2], 0.00116 µM. Further, the Km in assay [3] was 27 µM.

As for `OO` [H2O2, hydrogen peroxide], the values for the IC50 in assay [4] (setting [7]), in assay [4] (read-out: IC50 for inhibition of the DA substrate binding mutant) and in assay [5] were 10 µM, around 10 µM and 250 µM, respectively.

As for `N[C@@H](Cc1ccc(OP(=O)(O)O)cc1)C(=O)O` [P-Tyr, phosphotyrosine], the IC50 in assay [4] (setting [7]) is 120 µM; in assay [5], 150 µM.

`[Na+].[Na+].[Na+].[O]=[V]([O-])([O-])[O-]` [sodium ortho vanadate]: in assay [6], the “effect of inclusion in the terminator mixes on observed endpoints” value is “did not appear to have any additive effect”.
